Measurements published in patent US9061984B2 (University of Louisville Research Foundation, Inc., priority 2008, dated 2015).
Converted amounts (≈) assume the structure as drawn. Like-named read-outs stand apart in the source and are kept apart here.

Key:
[1] = Cytotoxicity on VERO cells (MTT), anti-T. cruzi study; details: African green monkey, VERO cells, Cytotoxicity VERO Lab B, Lab B
[2] = tested on: Trypanosoma cruzi (Tulahuen C4); assay: In vitro anti-T. cruzi activity (β-galactosidase CPRG colorimetric assay in VERO monolayer); format: cell-based; details: for IC50: Trypanosoma cruzi, TULAHUEN, Vero
[3] = Toxicity to peritoneal macrophages (Trypan Blue count); format: cell-based, BALB/C mouse; details: BALB/C, mouse, Cytotoxicity Macrophages IC50
[4] = tested on: axenic amastigotes of L. amazonensis (strain MHOM/BR/76/LTB-012); details: Table 8b
M. tuberculosis H37Rv = assay: Conventional aerobic (MABA) culture assay, luminescence MIC; format: cell-based, Mycobacterium tuberculosis

## C(=N/Nc1ncnc2sc3c(c12)CCCC3)/c1ccccn1 [II-21]
[1]
  IC50: < 0.08 µg/mL
[2]; IC50, VERO/IC50, T. cruzi, Lab B
  Selectivity Index Lab B: 0.1
[2]; Lab A, read-out: T. cruzi IC50 Lab A
  IC50: 0.1 µg/mL (≈ 0.323 µM)
[2]; Lab B, read-out: T. cruzi IC50 Lab B
  IC50: 1.2 µg/mL (≈ 3.88 µM)
[3]
  IC50 at 48 h: 2000 nM
[4]
  Selectivity Index: 13.0
M. tuberculosis H37Rv; Mycobacterium tuberculosis, 168 h, aerobic, 7 days, H37Rv
  MIC: 44.9 µg/mL (≈ 145 µM)
M. tuberculosis H37Rv; VERO vs MABA MIC
  Selectivity Index H37Rv: 0.2
